US8729047B2, “Compositions for inhibiting redox-sensitive GTPases” (Board of Regents, The University of Texas System, priority 2010, dated 2014)

Experiments:
RhoC [1] = biological target: T1, RhoC (Homo sapiens, UniProt P08134); experiment: Co-IP mass spectrometry of thioguanine nucleotide disulfide adduct; type: cell-based; set-up: endogenous in cells; host or cells: SUM149, SUM102, SW480, HCCLM3 (endogenous); HME-RhoC (transfected with wild type RhoC)
Method: FIG. 6. Detection of unusual 6-TGNP adduct from HME-RhoC cells. […] A monoclonal RhoC antibody (Biocompare, South San Francisco, Calif.) and a “Mammalian Co-Immunoprecipitation Kit” (Pierce) were used for the analyses of the RhoC 6-TGNP interaction in HME-RhoC cells. The immunoprecipitated RhoC sample was suspended in 50% methanol:0.1% formic acid. The protein portion and RhoC-released nucleotide were separated by a brief centrifugation (3000×g for 5 min). The protein portion from the immunoprecipitated RhoC was resuspended in the assay buffer (pH 7.5), digested with trypsin for 10 h, and analyzed with MALDI-TOF tandem mass spectrometry. The MALDI-TOF peak at 1476.6 Da represents peptide-6-TGDP adduct; TC^20LLIVFSK-6-TGDP (SEQ ID NO:4).
FIG. 15. Detection of unusual 6-TGNP adduct from SUM and HME-RhoC cells. The ESI-MS and MS/MS methods to detect and identify a chemically modified RhoC residue are described elsewhere herein. […] The left and right columns, respectively, denote any of the RhoC samples taken from SUM and HME cells. As indicated, a mixture of samples taken from untreated SUM149 and SUM102 cells was used as a control for the experiment shown in the left column. For the right column, a mixture of samples taken from HME-RhoC and […] cells was used as a control. (B) A MS/MS analysis was performed with the ESI-MS sample of 6-TG-treated SUM149 cells to identify a biomolecule that have a mass of 1481.6 Da. […]
Cell lysates in an extraction buffer were incubated with a monoclonal anti-RhoC antibody precoupled to glutathione-agarose beads. […] The protein portion from the immunoprecipitated RhoC was resuspended in a buffer containing 1 mM EDTA and 0.1 mM DTPA in 50 mM TrisHCl (pH 7.4), then digested with trypsin for 10 h, and analyzed with electrospray mass spectrometry (ESI-MS) and tandem mass spectrometry (MS/MS) in the positive ion mode ([molecular mass+H]^+).

RhoC [2] = biological target: T1, RhoC; experiment: RhoC expression (Western) and RhoC activity assay in cells; type: cell-based; set-up: endogenous in cells; host or cells: SUM149, SUM102, SW480, HCCLM3 (endogenous); HME-RhoC (transfected with wild type RhoC)
Method: FIG. 14. Determination of cell invasiveness in the presence and absence of thiopurines and/or redox agents. […] Western blot analysis representing the total expression of RhoC in these cells also is shown. (B) Experimental procedures for the determination of the time-dependent motility of cells using the QCM Cell Invasion Assay kit in the presence and absence of 6-TG and DETA/NO are described elsewhere herein.
Cells were lysed in an extraction buffer containing 50 mM NaCl, 5 mM MgCl2, 1 mM ethylenediaminetetraacetic acid (EDTA), 0.1 mM diethylenetriaminepentaacetic acid (DTPA), and 0.1% NP40 in 150 mM TrisHCl (pH 8.0). The content of […] RhoC in cells then was determined by using Western analysis that relies on a monoclonal anti-RhoC antibody (Biocompare, South San Francisco, Calif.). To determine RhoC activity, the colorimetric RhoA activation assay Biochem Kit (Cytoskeleton, Denver, Colo.) was used essentially as described in the previous study (Hall et al. Neoplasia 10, 797-803 (2008)) except that the RhoC specific antibody (vide supra), instead of the RhoA antibody included in the assay kit, was used for this analysis.

Ras [3] = biological target: T2, Ras (Homo sapiens, UniProt P01112, G12V); experiment: Ras expression and activity in T24 / HT1080 cells; type: cell-based; conditions: T24 (or HT1080) cells, 6-TG 1 μM every 48 h and DETA/NO 10 μM every 20 h, longer than 10 days; FIG. 8
T2 construct: endogenous in cells; text also names HT1080
Method: (§1) FIG. 8. Examination of Ras and Raf-1 activity in T24 cells treated with various reagents. […] The total Raf-1 expression also was determined using an anti-Raf-1 antibody. Actin expression in cells was shown as controls.

Ras [4] = experiment: Ras expression and activity in T24 / HT1080 cells; type: cell-based, human; conditions: T24 and HT1080 cells, 8-TG 1 μM with NO donor; not shown
Method: as §1

T1 sequence (P08134 whole entry): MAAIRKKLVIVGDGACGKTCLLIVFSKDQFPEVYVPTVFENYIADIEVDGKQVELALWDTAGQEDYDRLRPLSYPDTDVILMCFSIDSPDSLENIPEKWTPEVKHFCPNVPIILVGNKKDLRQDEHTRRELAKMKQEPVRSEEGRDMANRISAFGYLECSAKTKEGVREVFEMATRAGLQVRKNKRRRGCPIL

SMILES	peak assigned to RhoC-6-TGDP adduct (RhoC [1]; 6-TG in the presence of a NO donor)	peptide-6-TGDP adduct (TC20LLIVFSK-6-TGDP) by MALDI-TOF (RhoC [1]; HME-RhoC cells, 6-TG 1 μM every 48 h, 5 days, FIG. 6)	RhoC-derived peptide-6-TGDP disulfide adduct mass peak by ESI-MS (RhoC [1]; co-IPed RhoC from SUM149 and HME-RhoC cells treated with 6-TG, FIG. 15A)	level of total RhoC expression (RhoC [2]; SUM149 and HME-RhoC cells, 6-TG three or more days)	RhoC activity (RhoC [2]; SUM149 and HME-RhoC cells, both 6-TG and DETA/NO (or GSNO), three days)	activity of RhoC (RhoC [2]; SW480 and HCCLM3 cells, 6-TG and a NO donor, not shown)	Ras inactivation (Ras [3])	expression and activity of Ras (Ras [4])
Nc1nc2nc[nH]c2c(=S)[nH]1 [6-TG, 6-thioguanine]	increased	detected	commonly exhibited	not changed	essentially no RhoC activity was detected	drastically diminished	significant amount of Ras (per cell mass) was inactivated	–
Nc1nc2[nH]c(S)nc2c(=O)[nH]1 [8-TG, 2-amino-8-mercapto-1H-purin-6(9H)-one]	–	–	–	–	–	–	–	virtually unchanged
